Assay results as given in patent publication US8618169B2, “Derivatives of N-phenylanthranilic acid and 2-benzimidazolone as potassium channel and/or neuron activity modulators” (Ramot at Tel-Aviv University Ltd., priority 2002, dated 2013).

Experiments:
KCNQ1 = target: T1, KCNQ1 (Homo sapiens, UniProt P51787); experiment: KCNQ1 current amplitude in Xenopus oocytes; assay type: cell-based; conditions: 50 μM, test potentials −50 to 0 mV, data not shown
T1 construct: expressed in transfected cells; host or cells: Xenopus oocytes (cRNA microinjection)
Protocol: Briefly, two-electrode voltage-clamp measurements were performed 3-5 days following cRNA microinjection into oocytes. Oocytes were bathed in a modified ND96 solution containing (in mM): 96 NaCl, 2 KCl, 1 MgCl2, 0.1 CaCl2 and 5 HEPES titrated to pH=7.4 with NaOH. Whole-cell currents were recorded at room temperature (20° C.-22° C.) using a GeneClamp 500 amplifier (Axon Instruments, Foster City, Calif., USA). […] Current signals were filtered at 0.5 kHz and digitized at 2 kHz.
Data are expressed as mean±SEM of 5-8 separate experiments.
The current amplitude of the various channels was measured from a −80 mV holding potential.

small DRG neurons = experiment: Spiking activity of DRG neurons, current-clamp; assay type: cell-based, mouse
Protocol: Dorsal root ganglion (DRG) neurons were dissected from 2-4 days-old ICR mice that were decapitated. DRGs were placed in Hank's balanced saline solution (HBSS) and were prepared by enzymatic dissociation. Briefly, cells were incubated for 30 minutes in 5 mg/ml dispase (Sigma), 2 mg/ml collagenase type 1A (Sigma) and 0.1 mg/ml DNase (Invitrogen/Gibco) in calcium and magnesium-free HBSS, and the ganglia were thereafter mechanically triturated with a firepolished glass Pasteur pipette. The ganglia were then centrifuged for 5 minutes at 80×g and resuspended in DMEM supplemented with 2 mM L-glutamine, 16.5 mM NaCO3, 6 g/l glucose, 5 ml penicillin/streptomycin and 10% fetal calf serum. For electrophysiological recording, dissociated neurons were plated on 13 mm glass coverslips previously coated with poly-D-lysine (1 mg/ml) and laminin (10 μg/ml) and were used after 2-6 days in culture.
For current measurements in CHO cells, recordings were performed 40 hours following transfection, using the whole-cell configuration of the patch-clamp technique [Hamill et al., Nature 294: 462-464 (1981)]. Signals were amplified using an Axopatch 200B patch-clamp amplifier (Axon Instruments, Foster City, Calif., USA), sampled at 2 kHz and filtered at 800 Hz via a 4-pole Bessel low pass filter. Data were acquired using pClamp 8.1 software (Axon Instruments, Foster City, Calif., USA) and an Elonex Pentium III computer in conjunction with a DigiData 1322A interface (Axon Instruments, Foster City, Calif., USA). The patch pipettes were pulled from borosilicate glass (Warner Instrument. Corp., Hamden, Conn., USA) with a resistance of 2-5 MΩ and were filled with (in mM): 130 KCl, 1 MgCl2, 5 K2ATP, 5 EGTA, 10 HEPES, adjusted with KOH at pH 7.4 (290 mOsm). The external solution contained (in [mM]): 140 NaCl, 4 KCl, 1.8 CaCl2, 1.2 MgCl2, 11 glucose, 5.5 HEPES, adjusted with NaOH at pH 7.4 (310 mOsm). Series resistances (3-13 MΩ) were compensated (75-90%) and periodically monitored. […]

CA1 pyramidal neurons = experiment: Bursting and spike ADP of CA1 pyramidal neurons in rat hippocampal slices, current-clamp; assay type: cell-based
Protocol: Using selective blockers and openers, it was recently shown that M-channels critically modulate the firing pattern of pyramidal hippocampal neurons by controlling the strength, duration and escalation into bursts of spike after depolarization (Yue and Yaari J. Neurosci., 24(19):4614-24, 2004).
To evaluate the effect of Compound 6 on the spike ADP, a brief depolarizing current pulse was injected to the neurons to elicit a solitary spike.

Structure (SMILES)	effect on homomeric KCNQ1 currents (KCNQ1)	effect on trains of evoked spikes (small DRG neurons; 15 μM, 75 pA, 400 ms)	effect on solitary evoked spike (small DRG neurons; 300 pA, 1 ms pulse)	effect on burst spiking (CA1 pyramidal neurons; 25 μM, long suprathreshold depolarizing current pulses)	ADP size with compound (CA1 pyramidal neurons; solitary spike, control 193.8±49.7 mV msec)
Cc1ccc(Cl)c(Nc2ccccc2C(=O)O)c1Cl [Compound 1, Meclofenamic acid]	not enhanced				
O=C(Cc1ccccc1Nc1c(Cl)cccc1Cl)NCCOCCO [Compound 6]		potently and reversibly blocked	reversibly prevent the generation of the single action potential	suppression of the burst	117.1±40.6 mV msec
